Columns and labels:
[1] = RNA encapsulation efficiency of LNP (Ribogreen fluorescence assay); format: physicochemical
Method in brief: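 LNP samples diluted in 1× TE with or without 0.2% Triton-X 100 for total or free RNA, stained ~10 min at room temperature in the dark with RiboGreen; fluorescence ex 488/em 525 nm against RNA standard curves. Encapsulation efficiency = (Total RNA−Free RNA)/Total RNA.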

[2] = LNP average particle size and polydispersity by dynamic light scattering; format: physicochemical
Method in brief: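 LNPs were diluted in PBS to a count rate of about 200-400 kcps and measured by DLS on a Zetasizer. Size is the intensity-weighted Z-average diameter, reported with number-average diameter, and the polydispersity index describes the spread of sizes around the mean.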

mouse TTR = experiment: Serum TTR ELISA in mice after LNP delivery; format: in vivo; settings: Table 7, G00282, CD-1 female mice i.v.; for Serum TTR % TSS: percentage of vehicle control
Method in brief: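 Female CD-1 mice received LNP at 0.1 mpk unless noted; serum was collected 6 or 7 days later. Total serum TTR was measured by mouse prealbumin ELISA at 10,000- and/or 2,500-fold dilution and is expressed as a percentage of vehicle control.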

[3] = LNP with the compound as amine lipid, Expt. 1, composition ratio (mol %) 50/9/38/3 for Cmpnd 49, 50/10/38.5/1.5 for the others
[4] = LNP with the compound as amine lipid, Expt. 2, composition ratio (mol %) 50/9/39.5/3 for Cmpnd 49, 50/9/39.5/1.5 for the others
[5] = LNP with the compound as amine lipid, Expt. 3, composition ratio (mol %) 50/9/38/3 for Cmpnd 49, 50/10/38.5/1.5 for the others
[6] = LNP with the compound as amine lipid, Expt. 4, composition ratio (mol %) 50/9/38/3 for Cmpnd 49, 50/10/38.5/1.5 for the others
[7] = LNP with the compound as amine lipid, Expt. 5, composition ratio (mol %) 50/10/38.5/1.5
[8] = LNP with the compound as amine lipid, Expt. 6, composition ratio (mol %) 50/9/38/3 for Cmpnd 49, 50/10/38.5/1.5 for the others
[9] = LNP with the compound as amine lipid, Expt. 7, composition ratio (mol %) 50/9/38/3 for Cmpnd 49, 50/10/38.5/1.5 for the others
[10] = LNP with the compound as amine lipid, Expt. 8, composition ratio (mol %) 50/9/38/3 for Cmpnd 49, 50/10/38.5/1.5 for the others
[11] = LNP with the compound as amine lipid, Expt. 9, composition ratio (mol %) 50/9/38/3 for Cmpnd 49, 50/10/38.5/1.5 for the others
[12] = LNP with the compound as amine lipid, Expt. 10, composition ratio (mol %) 50/9/38/3 for Cmpnd 49, 50/10/38.5/1.5 for the others
[13] = Table 4, LNP with G00282 sgRNA:Cas9 mRNA 1:1 w/w, N/P 6.0
[14] = Table 6, LNP with G00282 sgRNA:Cas9 mRNA 1:1 w/w
[15] = Table 10, LNP with G00534 sgRNA:Cas9 mRNA 1:2 w/w
[16] = Table 13, LNP sgRNA:Cas9 mRNA 1:2 w/w, N/P 6.0

Which “Encapsulation (%)” value [1, 3] does the source give for `CCCCC/C=C\C/C=C\CCCCCCCC(=O)OCC(COC(=O)CCC(OCCCCCCCC)OCCCCCCCC)COC(=O)OCCCN(CC)CC` (stereo not drawn) [Compound 49, 3-((4,4-bis(octyloxy)butanoyl)oxy)-2-((((3-(diethylamino)propoxy)carbonyl)oxy)methyl)propyl (9Z,12Z)-octadeca-9,12-dienoate, reference compound] here?
Its value is 98%.

And the “Encapsulation (%)” value [1, 4]?
Its value is 98%.

What about the “Encapsulation (%)” value [1, 5] of the same compound?
The value was 93%.

What about the “Encapsulation (%)” value [1, 6] of the same compound?
The value was 98%.

What about the “Encapsulation (%)” value [1, 7] of the same compound?
Its value is 98%.

What about the “Encapsulation (%)” value [1, 8] of the same compound?
Its value is 99%.

What about the “Encapsulation (%)” value [1, 9] of the same compound?
Its value is 93%.

What about the “Encapsulation (%)” value [1, 10] of the same compound?
Its value is 98%.

And the “Encapsulation (%)” value [1, 11]?
Its value is 98%.

What about the Encapsulation (%) [1, 12] of the same compound?
The Encapsulation (%) was 98%.

What about the “Encapsulation (%)” value [1, 13] of the same compound?
The value was 98%.

What about the “Encapsulation (%)” value [1, 14] of the same compound?
Its value is 99%.

What about the “Encapsulation (%)” value [1, 15] of the same compound?
The value was 97%.

And the “% E” value [1, 16]?
Its value is 98%.

What about the “Num Ave Size (nm)” value [2, 3] of the same compound?
The value was 69.84 nm.

What about the PDI [2, 3] of the same compound?
Its PDI is 0.05.

What about the “Z-Ave Size (nm)” value [2, 3] of the same compound?
The value was 87.92 nm.

What about the “Num Ave Size (nm)” value [2, 4] of the same compound?
The value was 73.13 nm.

And the PDI [2, 4]?
The PDI was 0.014.

And the “Z-Ave Size (nm)” value [2, 4]?
The value was 88.36 nm.

What about the “Num Ave Size (nm)” value [2, 5] of the same compound?
The value was 63.19 nm.

And the PDI [2, 5]?
The PDI was 0.03.

What about the “Z-Ave Size (nm)” value [2, 5] of the same compound?
Its value is 77.07 nm.

And the “Num Ave Size (nm)” value [2, 6]?
Its value is 66.26 nm.

What about the PDI [2, 6] of the same compound?
The PDI was 0.026.

What about the “Z-Ave Size (nm)” value [2, 6] of the same compound?
The value was 81.83 nm.

What about the “Num Ave Size (nm)” value [2, 7] of the same compound?
Its value is 65 nm.

And the PDI [2, 7]?
Its PDI is 0.03.

And the “Z-Ave Size (nm)” value [2, 7]?
The value was 83.00 nm.

And the “Num Ave Size (nm)” value [2, 8]?
Its value is 74 nm.

And the PDI [2, 8]?
The PDI was 0.02.

What about the “Z-Ave Size (nm)” value [2, 8] of the same compound?
The value was 90.00 nm.

And the “Num Ave Size (nm)” value [2, 9]?
The value was 63.19 nm.

And the PDI [2, 9]?
The PDI was 0.026.

And the “Z-Ave Size (nm)” value [2, 9]?
Its value is 77.07 nm.

And the “Num Ave Size (nm)” value [2, 10]?
The value was 69.01 nm.

And the PDI [2, 10]?
The PDI was 0.026.

And the “Z-Ave Size (nm)” value [2, 10]?
The value was 84.47 nm.

And the “Num Ave Size (nm)” value [2, 11]?
The value was 70 nm.

What about the PDI [2, 11] of the same compound?
The PDI was 0.04.

What about the “Z-Ave Size (nm)” value [2, 11] of the same compound?
Its value is 87 nm.

And the “Num Ave Size (nm)” value [2, 12]?
Its value is 75 nm.

What about the PDI [2, 12] of the same compound?
The PDI was 0.04.

What about the “Z-Ave Size (nm)” value [2, 12] of the same compound?
The value was 90 nm.

What about the “Num Ave Size (nm)” value [2, 13] of the same compound?
The value was 69.51 nm.

What about the PDI [2, 13] of the same compound?
The PDI was 0.007.

And the “Z-Ave Size (nm)” value [2, 13]?
The value was 84.93 nm.

What about the “Num Ave Size (nm)” value [2, 14] of the same compound?
Its value is 69.75 nm.

And the PDI [2, 14]?
Its PDI is 0.011.

And the “Z-Ave Size (nm)” value [2, 14]?
The value was 83.63 nm.

What about the “Num Avg Size (nm)” value [2, 15] of the same compound?
Its value is 69.85 nm.

And the PDI [2, 15]?
The PDI was 0.028.

And the “Z-Avg Size (nm)” value [2, 15]?
The value was 87.84 nm.

And the “Number Average [nm]” value [2, 16]?
Its value is 74.82 nm.

And the PDI [2, 16]?
The PDI was 0.015.

What about the “Z-Ave Size (nm)” value [2, 16] of the same compound?
Its value is 93.14 nm.

What about the “Serum TTR” value (mouse TTR; dose 0.1 mpk) of the same compound?
Its value is 254 µg/mL.

And the “Serum TTR % TSS” value (mouse TTR; dose 0.1 mpk)?
The value was 31% TSS.

What about the “Serum TTR” value (mouse TTR; dose 0.3 mpk) of the same compound?
The value was 40 µg/mL.

What about the “Serum TTR % TSS” value (mouse TTR; dose 0.3 mpk) of the same compound?
Its value is 5% TSS.
